Patent publication US9504729B2, “Antiangiogenic small molecules and methods of use” (The United States of America, as represented by the …, priority 2009, dated 2016)

Tested on: angiogenesis genes in dermal microvascular endothelial cells
Assay: Real time RT-PCR of angiogenesis gene expression during endothelial tube formation
Assay type: cell-based
Conditions: 1 μM SM, 24 hours
Protocol: For gene expression studies, three independent experiments were run for each SM tested. 90.000 cells/well (6 wells/treatment) of dermal microvascular endothelial cells (Lonza, Walkersville, Md.) were seeded on polymerized GELTREX™ gel matrix (Invitrogen, Carlsbad, Calif.) in 24 well plates. Wells were immediately treated with the same volume of 1 μM SM or PBS. After 24 hours incubation at 37° C. and 5% CO2, cells were extracted using Cell Recovery Solution (BD Biosciences, San Jose, Calif., Cat. #354253). Total RNA was extracted with the RNeasy Mini Kit (Qiagen, Valencia, Calif., Cat. #74104), and retrotranscribed using […]® First-Strand reverse transcriptase (Invitrogen, Carlsbad, Calif., Cat. #11904-018). The real time PCR reactions were performed in an Opticon 2 cycler (MJ Research, Waltham, Mass.). Amplification was performed in a final volume of 25 μl, containing 2 μl cDNA (1:10 dilution from the reversed transcribed reaction) and 2 μl of primer mixture (10 μM each of forward and reverse primers). Samples were amplified as follows: after initial denaturation at 95 C for 2 minutes, reactions were run for 46 cycles at 95° C. for 30 seconds, 60° C. for 30 seconds, and 72° C. for 45 seconds. Fluorescence was measured in every cycle and a melting curve was run after the PCR by increasing temperature from 50 to 96° C. (in 0.5° C. increments). A defined single peak was obtained for all amplicons, thus confirming the specificity of the amplification.
The genes that were monitored were selected based on their relevance to the angiogenesis process. All experiments were done in triplicate. The results are shown in the volcano plots of FIG. 17. Log 2 fold-change is presented in the X-axis and log 10 P value in the Y-axis.

In the case of CCC(=O)OCN1C(=O)C=CC1=O [compound 19630], the “Log2 fold-change of gene expression: 1839” value is reported as −1.2, the “Log2 fold-change of gene expression: 4247” value is reported as 1.0 and the “Log2 fold-change of gene expression: 5569” value is reported as −3.0. The “Log2 fold-change of gene expression: 8131” value was 0.6, the “Log2 fold-change of gene expression: 9569” value was −2.3 and the “Log2 fold-change of gene expression: 10988” value was 2.5. For the same molecule, the “Log2 fold-change of gene expression: 23001” value was 0.4, the “Log2 fold-change of gene expression: 55332” value was −1.1 and the “Log2 fold-change of gene expression: 57722” value was 0.2. The “Log2 fold-change of gene expression: 58488” value was 1.2, the “Log2 fold-change of gene expression: 90780” value was −1.2 and the “Log2 fold-change of gene expression: 134265” value was −1.6. The “Log2 fold-change of gene expression: AKT1” value was 0.1, the “Log2 fold-change of gene expression: ANGPT1” value was −0.5 and the “Log2 fold-change of gene expression: ANGPT2” value was −1.8. The “Log2 fold-change of gene expression: ANGPTL3” value was −5.0, the “Log2 fold-change of gene expression: ANGPTL4” value was −0.2 and the “Log2 fold-change of gene expression: ANPEP” value was −0.4. For the same molecule, the “Log2 fold-change of gene expression: ANTXR1” value was −0.3, the “Log2 fold-change of gene expression: APOE” value was 3.3 and the “Log2 fold-change of gene expression: ARHGEF1” value was 0.2. The “Log2 fold-change of gene expression: Acvrl1” value was −0.6, the “Log2 fold-change of gene expression: Adcy4” value was 0.0 and the “Log2 fold-change of gene expression: BAL1” value was −0.9. The “Log2 fold-change of gene expression: BMP1” value was 0.5, the “Log2 fold-change of gene expression: C1orf54” value was −4.8 and the “Log2 fold-change of gene expression: CALD1” value was 1.7. For the same molecule, the “Log2 fold-change of gene expression: CCL2” value was 2.3, the “Log2 fold-change of gene expression: CCL11” value was −0.3 and the “Log2 fold-change of gene expression: CD248” value was 1.3. The “Log2 fold-change of gene expression: CDH5” value was −0.2, the “Log2 fold-change of gene expression: CENTD3” value was 0.6 and the “Log2 fold-change of gene expression: CLIC1” value was −0.1. For the same molecule, the “Log2 fold-change of gene expression: COL4A3” value was 0.1, the “Log2 fold-change of gene expression: COL18A1” value was 0.4 and the “Log2 fold-change of gene expression: COMT” value was −0.7. For the same molecule, the “Log2 fold-change of gene expression: CST4” value was 0.8, the “Log2 fold-change of gene expression: CTTNBP2NL” value was −2.3 and the “Log2 fold-change of gene expression: CXCL3” value was 12.1. The “Log2 fold-change of gene expression: CXCL5” value was 4.8, the “Log2 fold-change of gene expression: CXCL6” value was −0.5 and the “Log2 fold-change of gene expression: CXCL9” value was −1.0. The “Log2 fold-change of gene expression: CXCL10” value was 4.7, the “Log2 fold-change of gene expression: Calcr1” value was −4.3 and the “Log2 fold-change of gene expression: Caskin2” value was −2.8. For the same molecule, the “Log2 fold-change of gene expression: Ccbp2” value was −0.1, the “Log2 fold-change of gene expression: Cldn5” value was 0.6 and the “Log2 fold-change of gene expression: DGKG” value was 5.4. The “Log2 fold-change of gene expression: DKK3” value was −1.5, the “Log2 fold-change of gene expression: DLL4” value was −4.5 and the “Log2 fold-change of gene expression: DUT” value was −0.8. The “Log2 fold-change of gene expression: EFNA1” value was 3.7, the “Log2 fold-change of gene expression: EFNA3” value was −0.4 and the “Log2 fold-change of gene expression: EFNB2” value was −1.9. The “Log2 fold-change of gene expression: EGF” value was −1.0, the “Log2 fold-change of gene expression: ENG” value was 0.1 and the “Log2 fold-change of gene expression: EPHB4” value was −0.8. The “Log2 fold-change of gene expression: EREG” value was 7.6, the “Log2 fold-change of gene expression: ESAM1” value was −3.3 and the “Log2 fold-change of gene expression: EXTL3” value was 1.0. For the same molecule, the “Log2 fold-change of gene expression: Egf17” value was −3.8, the “Log2 fold-change of gene expression: Ehd4” value was −1.1 and the “Log2 fold-change of gene expression: Entpd1” value was −4.9. For the same molecule, the “Log2 fold-change of gene expression: Epas1” value was 1.8, the “Log2 fold-change of gene expression: EphB1” value was 0.0 and the “Log2 fold-change of gene expression: Erg” value was −1.6. The “Log2 fold-change of gene expression: FGF1” value was −3.0, the “Log2 fold-change of gene expression: FGF2” value was 1.7 and the “Log2 fold-change of gene expression: FGFR3” value was −0.2. For the same molecule, the “Log2 fold-change of gene expression: FIGF” value was −3.2, the “Log2 fold-change of gene expression: FLT1” value was −2.1 and the “Log2 fold-change of gene expression: Fgd5” value was −1.6. The “Log2 fold-change of gene expression: GPCR124” value was −1.7, the “Log2 fold-change of gene expression: GRRP1” value was 0.0 and the “Log2 fold-change of gene expression: Grp116” value was −1.9. For the same molecule, the “Log2 fold-change of gene expression: HAND2” value was −0.5, the “Log2 fold-change of gene expression: HGF” value was −0.3 and the “Log2 fold-change of gene expression: HIF1A” value was −1.7. For the same molecule, the “Log2 fold-change of gene expression: HPSE” value was 0.6, the “Log2 fold-change of gene expression: Hspa12b” value was −4.6 and the “Log2 fold-change of gene expression: ID1” value was 1.0. For the same molecule, the “Log2 fold-change of gene expression: ID3” value was 0.4, the “Log2 fold-change of gene expression: IFNA1” value was 0.4 and the “Log2 fold-change of gene expression: IFNB1” value was −0.4. For the same molecule, the “Log2 fold-change of gene expression: IFNG” value was 4.7, the “Log2 fold-change of gene expression: IGF1” value was 3.6 and the “Log2 fold-change of gene expression: IL1B” value was 0.2. The “Log2 fold-change of gene expression: IL6” value was 3.5, the “Log2 fold-change of gene expression: IL8” value was 3.0 and the “Log2 fold-change of gene expression: ITGAV” value was −0.3. The “Log2 fold-change of gene expression: ITGB3” value was −0.9, the “Log2 fold-change of gene expression: Icam1” value was 0.1 and the “Log2 fold-change of gene expression: Icam2” value was 0.4. The “Log2 fold-change of gene expression: JAG1” value was −1.2 and the “Log2 fold-change of gene expression: KDR” value was −2.7.
